We go through 5 molecules from PMC7349657, “Efficient Targeted Degradation via Reversible and Irreversible Covalent PROTACs” (Journal of the American Chemical Society, 2020).

One test has as its target T1, BTK kinase domain (Homo sapiens, UniProt Q06187).
T1 construct: human BTK kinase domain (residues 387–659); 6xHis (N, cleaved yes); TEV protease cleavage site (N, cleaved yes); made in house; virus produced in Sf9, expression in Tni insect cells
The experiment in a line: LC-MS covalent binding and ibrutinib competition assay with recombinant BTK kinase domain. The note with it: for protein labeled by the PROTAC / formation of covalent complex with BTK: 3 μM compound + 2 μM BTK; for protein labeled by the PROTAC / displacement by ibrutinib (ibrutinib adduct formation) / formation of covalent complex with BTK: LC-MS; for displacement by ibrutinib (ibrutinib adduct formation): 40 μM ibrutinib added to preformed complex; for displacement by ibrutinib (ibrutinib adduct formation) / time scale of exchange / dissociation of the covalent complex: 37 °C; for time scale of exchange / dissociation of the covalent complex: 40 μM ibrutinib. The protocol: We also used LC-MS to directly observe the formation of covalent complexes with recombinant BTK and measure their dissociation kinetics (Figure 6C, D, Supporting Figure 5A).
Binding experiments were performed in Tris 20 mM pH = 8, 50 mM NaCl, and 1 mM DTT. BTK kinase domain was diluted to 2 μM in buffer, and 3 μM PROTAC was added by adding 1/100th volume from a 300 μM solution. The PROTACs were incubated with BTK at room temperature for various times. For testing by LCMS, 24 μL of the solution was mixed with 6 μL of 2.4% formic acid, and 10 μL was injected to LCMS.
For binding experiments in the presence of glutathione, freshly dissolved reduced glutathione was incubated at 6.14 mM with 4 μM compounds for 30 min at room temperature in Tris 20 mM pH = 8 and 50 mM NaCl. At this point BTK was added to a concentration of 2 μM (diluting the GSH to 5 mM and the compounds to 3.25 μM), and LC-MS was used as described previously to follow the covalent labeling of BTK.
For data analysis, the raw spectra were deconvoluted using a 27 000:37 000 Da window and 1 Da resolution. The signal from masses 27 000:30 000 and 34 000:37 000 (which contained no peaks) was averaged and subtracted from the whole signal.
Cloning and Over Expression of BTK
Human wild type BTK full length was obtained from the ORFeome (ref: http://www.orfeomecollaboration.org/), from which the full human BTK gene (clone HsCD00433457) was inserted into the mammalian expression vector pCDNA3.1. In parallel, a mutant BTK C481S was constructed by assemble 2 PCR products harboring the desired mutation and cloned into pCDNA3.1. Both constructs contain a C -terminal 6x-His tag and three amino acids sequence (GTK) linker between the BTK coding sequence and the His tag.
The expression of hBTK is driven by the CMV promoter. U2OS cells (ATCC HTB-96) were grown to 70% confluency in a 10 cm plate, transfected with either hBTK plasmid (BTK WT or C481S) using Lipofectamine 2000 reagent (Thermo Fisher Scientific) according to manufacturer’s instructions. Cells were subsequently incubated for 48 hours post transfection, trypsinized and resuspended in 12 mL medium, and divided 2 mL per well in a 6-well plates and left to adhere over-night. 72 hours post transfection 100 nM PROTACs were added for 24 hours and BT K was measured by performing western blot procedure as described in the main […]
Expression and Purification of Recombinant BTK
The expression and purification of human BTK kinase domain (residues 387–659) was based on the method used by Bradsha w JM. et al1. The kinase domain was inserted into pFastBac-1 with an N-terminal 6× -His tag followed by a TEV protease cleavage site (The plasmid was a gift from Dr. Ville Paavilainen, University of Helsinki). Viruses were produced […]
cells by infection of 2 L of cultured cells with 1:200 mL virus solution such that cell growth was terminated after 3 days. The cells were collected by centrifugation (800 g for 15 minutes), and the pellet was resu spended in 50 mL ly sis buf fer (10 mM Hepes, pH 7.5, 400 mM NaCl, 1.5 mM DTT) supplemented with 1× protease inhibitor cocktail (Roche). The cells were lysed by five passages through a cell homogenizer. The cellular debris wer e pelleted by centrifugation (30,000 g for 30 minutes). The protein was bound in batch to nickel– nitrilotriacetic acid agarose beads in binding buffer (lysis buffer supplemented with 20 mM imidazole) for 4 hours at 4°C. The beads were washed with additional binding buffer ( four 5 mL washes), and the protein was eluted with four 0.5 mL portions of elution buffer (lysis buffer […]
supplemented with 300 mM imidazole). The His tag was cleaved by the addition of TEV protease with concomitant dialysis overnight into cleavage buffer (50 mM Tris, pH 8.0, 0.5 mM EDTA, 1 mM DTT) at 4°C. The resulting soluble protein was passed ov er Ni -NTA beads to remove the protease and purified further by gel filtration on a HiLoad_16/60_Superdex_75 (GE Healthcare) column equilibrated with 20 mM Tris, pH 8.0, 50 mM NaCl, 1 mM DTT. The […]

Another test concerns C481S BTK. The experiment in a line: In vitro kinase activity assay, C481S BTK (Nanosyn). The note with it: 2 h preincubation.

Molecules are shown by their SMILES.

T1 sequence (Q06187 387-659): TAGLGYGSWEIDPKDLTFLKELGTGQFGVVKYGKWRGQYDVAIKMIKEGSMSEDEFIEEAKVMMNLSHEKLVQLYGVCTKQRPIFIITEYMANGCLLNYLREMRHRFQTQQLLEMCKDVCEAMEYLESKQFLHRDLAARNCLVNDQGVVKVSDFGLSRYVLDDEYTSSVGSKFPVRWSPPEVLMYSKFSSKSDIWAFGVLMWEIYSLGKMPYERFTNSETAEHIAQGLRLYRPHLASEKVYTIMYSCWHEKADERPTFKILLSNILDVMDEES

As for `Nc1ncnc2c1c(-c1ccc(Oc3ccccc3)cc1)nn2C1CCCN(C(=O)C=CCOCCOCCOCCOCCOCCOc2cccc3c2C(=O)N(C2CCC(=O)NC2=O)C3=O)C1` (stereo not shown) [IR-1], at BTK kinase domain, the “protein labeled by the PROTAC” value was 80–85% and the “displacement by ibrutinib (ibrutinib adduct formation)” value (“displacement by ibrutinib” below) is recorded as “no ibrutinib adduct was observed even after 28 h”.

On to `Nc1ncnc2c1c(-c1ccc(Oc3ccccc3)cc1)nn2C1CCCN(C(=O)C=CCCCCOCCOCCOCCOCCOc2cccc3c2C(=O)N(C2CCC(=O)NC2=O)C3=O)C1` (stereo not shown) [IR-2], for which, at BTK kinase domain, the “protein labeled by the PROTAC” value is given as 80–85% and the “displacement by ibrutinib” value is on record as “no ibrutinib adduct was observed even after 28 h”. In addition, the “fold reduction in potency, C481S vs wild-type BTK” value (“fold reduction in potency, C481S” for short) with C481S BTK is on record as “only slight sensitivity to the mutation”.

As to `Nc1ncnc2c1c(-c1ccc(Oc3ccccc3)cc1)nn2C1CCCN(C(=O)CCCCCCOCCOCCOCCOCCOc2cccc3c2C(=O)N(C2CCC(=O)NC2=O)C3=O)C1` (stereo not shown) [NC-1], at BTK kinase domain (room temperature), the “formation of covalent complex with BTK” value is given as “forms no covalent adduct”. The “ibrutinib labeling of BTK in presence of the PROTAC” value on BTK kinase domain (4 μM ibrutinib, 1 h, room temperature) stood at 100%. For the same molecule, the “time to full ibrutinib labeling of BTK in presence of preincubated PROTAC” value on BTK kinase domain (4 μM ibrutinib, room temperature) is recorded as at most 1 h. For the same molecule, the “fold reduction in potency, C481S” value in the test on C481S BTK was below 2 fold.

For `N#CC(=CCCCCOCCOCCOCCOCCOc1cccc2c1C(=O)N(C1CCC(=O)NC1=O)C2=O)C(=O)N1CCCC(n2nc(-c3ccc(Oc4ccccc4)cc3)c3c(N)ncnc32)C1` (stereo not shown) [RC-2], on BTK kinase domain, the “displacement by ibrutinib” value is reported as “gradual displacement of the PROTAC by ibrutinib” and the “time scale of exchange / dissociation of the covalent complex” value is 10 to 20 h. In addition, the “fold reduction in potency, C481S” value in the test on C481S BTK worked out at 68 fold.

Turning to `CC(C)(C=C(C#N)C(=O)N1CCCC(n2nc(-c3ccc(Oc4ccccc4)cc3)c3c(N)ncnc32)C1)CCCOCCOCCOCCOCCOc1cccc2c1C(=O)N(C1CCC(=O)NC1=O)C2=O` (stereo not shown) [RC-3], the “formation of covalent complex with BTK” value on BTK kinase domain (room temperature) was “extremely fast”. Further, on BTK kinase domain, the “displacement by ibrutinib” value is “gradual displacement of the PROTAC by ibrutinib” and the “time scale of exchange / dissociation of the covalent complex” value lay in the range of 10 to 20 h. The “fold reduction in potency, C481S” value with C481S BTK is recorded as above 1000 fold.
